For one molecule, MBC and MIC results are on record in patent US20220016200A1, “PHARMACEUTICAL COMPOSITION FOR THE TREATMENT OF CYSTIC FIBROSIS” (GALENUS G.H. AG, priority 2018, published 2022).

Where two headings read alike, the source gives them in different places. Bridge positions count the residues as written; N and C are the ends. Square brackets hold non-standard residues; d marks the D form. Peptide text beside a SMILES is read from it. * marks the point of attachment. Heptanoyl(5-Me) = CCC(C)CCCC(=O)*; Dab = NCC[C@H](N)C(=O)O

Test [1] relates to A. junii 1397597. The test is described as follows: Checkerboard colistin sulphate (CS) plus teicoplanin (TP), MIC/FIC and MBC/FBC. It is filed as cell-based, Acinetobacter junii. As to conditions: Acinetobacter junii, 1397597; A. junii; agent alone; CAMHB, 5*10^5 CFU/ml; read-out: MBC. The protocol: (§1) Checkerboard analysis to determine minimal inhibitory concentration (MIC)/fractional inhibitory concentration (FIC) and minimal bacterial concentration (MBC)/fractional bacterial concentration (FBC) values of colistin sulphate (CS) plus teicoplanin (TP) for 6 Gram-negative strains with a bacterial load 5(1-10)*10^5 CFU/ml in a cation-adjusted Mueller-Hinton broth (CAMHB). • a. Antimicrobial stock solutions were prepared using sterile distilled water • b. CS was added along the ordinate; TP was added along the abscissa to 96 well, flat bottom, polystyrene panels with no treatment. Colistin alone was tested in triplicates. • c. Serial 2-fold dilutions starting with 640 μg/ml CS and 640 μg/ml TP were made; 15 μl volume of the serial dilutions were added for each agent to the appropriate wells; final volume at 30 μl • d. For each agent tested alone an additional 15 μl media was added to the well. 30 μl were added in control wells where none of the agent was tested. The negative control well contains 150 μl media without any additions • e. From an overnight bacterial culture in tryptic soy broth, 100 μL was added to 10 mL of fresh tryptic soy broth. This was then incubated at 37° C. for 1.5 hour at 180 rpm. • f. Bacteria in 120 μl CAMHB were added to each well (end concentration 5(1-10)*10^5 CFU/ml) • g. Plates were incubated at 37° C. in an ambient air incubator for 24 h • h. Turbidity at OD600 is determined with a plate photometer • i. By using a one-time inoculator 3 μl from each well of the 96-well plate were transferred to three blood agar plates. The plates were incubated over night at 37° C. in an ambient air incubator • j. […] Determination of the fractional inhibitory concentration (FIC) index and fractional bactericidal concentration (FBC) index and characterization of antimicrobial interactions was assessed […]
(§2) Interactive categories were calculated from checkerboard analysis using MIC results from testing each agent alone and MIC results from the combination wells adjacent to the wells with growth in them […]

Test [2] concerns S. maltophilia 1221783. The test is described as above. It counts as cell-based, Stenotrophomonas maltophilia. The following applies: agent alone, CAMHB, 5*10^5 CFU/ml. The protocol:
as §1, §2

As for `CCC(C)CCCC(=O)N[C@@H](CCN)C(=O)N[C@H](C(=O)N[C@@H](CCN)C(=O)N[C@H]1CCNC(=O)[C@H]([C@@H](C)O)NC(=O)[C@H](CCN)NC(=O)[C@H](CCN)NC(=O)[C@H](CC(C)C)NC(=O)[C@@H](CC(C)C)NC(=O)[C@H](CCN)NC1=O)[C@@H](C)O` (stereo partly drawn) [CS, colistin sulphate] ({Heptanoyl(5-Me)}-[Dab]T[Dab][Dab][Dab][dL]L[Dab][Dab]T; lactam 4-C), in test [1], the MBC is 8 µg/mL. The MIC is no more than 0.5 µg/mL in test [2] (Stenotrophomonas maltophilia, 1221783, 24 h, read-out: MIC) and 0.25 µg/mL in test [2] (24 h).

As a reminder, the MBC is the lowest tested concentration that kills the bacteria rather than only halting them. Broadly, the MIC is the lowest concentration that inhibits growth of the organism.
